Measurements taken from ChEMBL document CHEMBL4330144, “A mitochondria-targeted organic arsenical accelerates mitochondrial metabolic disorder and function injury” (Bioorg Med Chem, 2019).
Calls of active or inactive are those of the source. The rule behind the calls is not given here.

Experiments:
NB-4 [1] = experiment: Induction of ROS generation in human NB4 cells up to 1.2 uM up to 24 hrs by DCFH-DA staining based flow cytometry; format: functional, cell-based
NB-4 [2] = experiment: Cytotoxicity against human NB4 cells assessed as reduction in cell viability at 1 to 1.2 uM after 24 hrs in presence of DMSA by trypan blue assay; format: functional, cell-based
Rattus norvegicus [3] = species: Rattus norvegicus; experiment: Induction of mitochondrial membrane potential loss in isolated Wistar rat mitochondria assessed as maximum power output at 50 uM using pyruvate as substrate up to 3 hrs by microcalorimetry; format: functional
NB-4 [4] = experiment: Induction of apoptosis in human NB4 cells assessed as necrotic cells after 24 hrs in presence of Z-VAD-fmk by Annexin V-FITC/propidium iodide staining based flow cytometry (reference value: 0.1%); format: functional
SGC-7901 = experiment: Cytotoxicity against human SGC7901 cells after 24 hrs by MTT assay; format: functional, cell-based; conditions: SGC-7901, 24 h
Rattus norvegicus [5] = species: Rattus norvegicus; experiment: Induction of mitochondrial membrane potential loss in isolated Wistar rat mitochondria assessed as activity recovery phase rate constant at 100 uM using pyruvate as substrate up to 3 hrs by microcalorimetry; format: functional
MCF7 [6] = experiment: Cytotoxicity against human MCF7 cells after 24 hrs by MTT assay; format: functional, cell-based; conditions: MCF7, 24 h
Rattus norvegicus [7] = species: Rattus norvegicus; experiment: Induction of inner mitochondrial membrane permeabilization in isolated Wistar rat mitochondria assessed as H+ permeabilization at 5 to 75 uM measured for 10 to 30 mins; format: functional
Rattus norvegicus [8] = species: Rattus norvegicus; experiment: Induction of mitochondrial membrane potential loss in isolated Wistar rat mitochondria assessed as total heat output at 100 uM using pyruvate as substrate up to 3 hrs by microcalorimetry; format: functional
HEK293 [9] = experiment: Cytotoxicity against HEK293 cells after 24 hrs by MTT assay; format: cell-based; conditions: Homo sapiens, HEK293, 24 h
NB-4 [10] = experiment: Induction of mitochondrial membrane potential loss in human NB4 cells at 0.6 uM after 6 hrs by JC1 staining based flow cytometry (reference value: 27.7%); format: functional
NB-4 [11] = experiment: Induction of mitochondrial membrane potential loss in human NB4 cells at 0.6 uM after 3 hrs by JC1 staining based flow cytometry (reference value: 27.7%); format: functional
Rattus norvegicus [12] = species: Rattus norvegicus; experiment: Induction of mitochondrial membrane potential loss in isolated Wistar rat mitochondria assessed as stationary increase phase rate constant at 100 uM using pyruvate as substrate up to 3 hrs by microcalorimetry; format: functional
NB-4 [13] = experiment: Induction of decrease in intracellular total thiols level in human NB4 cells up to 1.2 uM up to 24 hrs; format: functional, cell-based
NB-4 [14] = experiment: Induction of cytochrome-c release in human NB4 cells after 24 hrs by ELISA; format: functional, cell-based
Rattus norvegicus [15] = species: Rattus norvegicus; experiment: Induction of mitochondrial membrane potential loss in isolated Wistar rat mitochondria assessed as maximum power output time at 25 uM using pyruvate as substrate up to 3 hrs by microcalorimetry (reference value: 45.07 to 49.89 hrs); format: functional
Rattus norvegicus [16] = species: Rattus norvegicus; experiment: Inhibition of ETC3 in isolated Wistar rat mitochondria assessed as decrease in oxidized cyochrome-c reduction at 50 uM incubated for 3 to 5 mins and measured for up to 3 mins
Rattus norvegicus [17] = species: Rattus norvegicus; experiment: Inhibition of mitochondrial respiration in isolated Wistar rat mitochondria assessed as decrease in succinate/ADP-stimulated respiratory control ratio up to 16 uM by Clark oxygen electrode method; format: functional
NB-4 [18] = experiment: Induction of apoptosis in human NB4 cells assessed as live cells after 24 hrs in presence of Nec-1 by Annexin V-FITC/propidium iodide staining based flow cytometry (reference value: 92%); format: functional
NB-4 [19] = experiment: Induction of apoptosis in human NB4 cells assessed as early apoptotic cells after 24 hrs in presence of Nec-1 by Annexin V-FITC/propidium iodide staining based flow cytometry (reference value: 5%); format: functional
MCF7 [20] = experiment: Cytotoxicity against human MCF7 cells after 48 hrs by MTT assay; format: functional, cell-based; conditions: MCF7, 48 h
Rattus norvegicus [21] = species: Rattus norvegicus; experiment: Induction of mitochondrial membrane potential loss in isolated Wistar rat mitochondria assessed as stationary increase phase rate constant at 50 uM using pyruvate as substrate up to 3 hrs by microcalorimetry; format: functional
NB-4 [22] = experiment: Cytotoxicity against human NB4 cells assessed as reduction in cell viability up to 2.4 uM up to 8 hrs by MTT assay; format: functional, cell-based
NB-4 [23] = experiment: Induction of apoptosis in human NB4 cells assessed as necrotic cells after 24 hrs by Annexin V-FITC/propidium iodide staining based flow cytometry (reference value: 0.1%); format: functional
NB-4 [24] = experiment: Induction of mitochondrial membrane potential loss in human NB4 cells assessed as decrease in intracellular ATP level at 0.6 to 1.2 uM after 24 hrs; format: functional, cell-based
NB-4 [25] = experiment: Induction of apoptosis in human NB4 cells assessed as necrotic cells after 24 hrs in presence of Nec-1 by Annexin V-FITC/propidium iodide staining based flow cytometry (reference value: 0.1%); format: functional
NB-4 [26] = experiment: Cytotoxicity against human NB4 cells after 48 hrs by MTT assay; format: functional, cell-based; conditions: NB-4, 48 h
Rattus norvegicus [27] = species: Rattus norvegicus; experiment: Induction of mitochondrial membrane potential loss in isolated Wistar rat mitochondria assessed as maximum power output at 25 uM using pyruvate as substrate up to 3 hrs by microcalorimetry (reference value: 141.64 to 153.92 W); format: functional
Rattus norvegicus [28] = species: Rattus norvegicus; experiment: Induction of mitochondrial membrane potential loss in isolated Wistar rat mitochondria assessed as decline phase rate constant at 100 uM using pyruvate as substrate up to 3 hrs by microcalorimetry; format: functional
NB-4 [29] = experiment: Induction of ROS generation in human NB4 cells up to 1.2 uM up to 24 hrs by DHE staining based flow cytometry; format: functional, cell-based
NB-4 [30] = experiment: Induction of ROS generation in human NB4 cells at 0.6 uM after 1 to 6 hrs by DCFH-DA staining based flow cytometry; format: functional, cell-based
HEK293 [31] = experiment: Cytotoxicity against HEK293 cells after 48 hrs by MTT assay; format: cell-based; conditions: Homo sapiens, HEK293, 48 h
Rattus norvegicus [32] = species: Rattus norvegicus; experiment: Induction of mitochondrial swelling in isolated Wistar rat mitochondria at 30 uM in presence of ruthenium red; format: functional
Rattus norvegicus [33] = species: Rattus norvegicus; experiment: Induction of mitochondrial swelling in isolated Wistar rat mitochondria at 30 uM in presence of EGTA; format: functional
NB-4 [34] = experiment: Induction of apoptosis in human NB4 cells assessed as live cells after 24 hrs by Annexin V-FITC/propidium iodide staining based flow cytometry (reference value: 92%); format: functional
Rattus norvegicus [35] = species: Rattus norvegicus; experiment: Inhibition of ETC1 in isolated Wistar rat mitochondria assessed as reduction in NADH oxidation at 6 to 24 uM preincubated for 3 mins and measured after 5 mins by DB reagent based assay
NB-4 [36] = experiment: Cytotoxicity against human NB4 cells assessed as reduction in cell viability at 1.2 uM after 24 hrs in presence of PDHC-E2 co-enzyme LA by trypan blue assay; format: functional, cell-based
Rattus norvegicus [37] = species: Rattus norvegicus; experiment: Induction of mitochondrial membrane permeability in isolated Wistar rat mitochondria at 50 uM for 30 mins by TEM analysis; format: functional
NB-4 [38] = experiment: Induction of mitochondrial membrane potential loss in human NB4 cells at 0.6 uM after 1 hr by JC1 staining based flow cytometry (reference value: 27.7%); format: functional
NB-4 [39] = experiment: Induction of apoptosis in human NB4 cells assessed as late apoptotic cells after 24 hrs by Annexin V-FITC/propidium iodide staining based flow cytometry (reference value: 2.9%); format: functional
HeLa = experiment: Cytotoxicity against human HeLa cells after 24 hrs by MTT assay; format: functional, cell-based

**Q.** For `O=C(CC[P+](c1ccccc1)(c1ccccc1)c1ccccc1)Nc1ccc([As]2SCCCS2)cc1.[Cl-]`, which Activity (NB-4 [1]) is on record?
**A.** Active

**Q.** And the Activity (NB-4 [2])?
**A.** inactive

**Q.** And the Activity (Rattus norvegicus [3])?
**A.** 107 W

**Q.** What about the Activity (NB-4 [4]) of the same compound?
**A.** 0.2%

**Q.** What about the IC50 (SGC-7901) of the same compound?
**A.** 4.63 µM

**Q.** What about the K (Rattus norvegicus [5]) of the same compound?
**A.** 3.88 ×10⁻³ /min

**Q.** What about the IC50 (MCF7 [6]) of the same compound?
**A.** 4.44 µM

**Q.** And the Activity (Rattus norvegicus [7])?
**A.** Active

**Q.** What about the Activity (Rattus norvegicus [8]) of the same compound?
**A.** 11.2 J

**Q.** What about the IC50 (HEK293 [9]) of the same compound?
**A.** 4.63 µM

**Q.** What about the Activity (NB-4 [10]) of the same compound?
**A.** 81.5%

**Q.** What about the Activity (NB-4 [11]) of the same compound?
**A.** 73.9%

**Q.** And the K (Rattus norvegicus [12])?
**A.** 0.41 ×10⁻³ /min

**Q.** What about the Activity (NB-4 [13]) of the same compound?
**A.** Active

**Q.** What about the Activity (NB-4 [14]) of the same compound?
**A.** Dose-dependent effect

**Q.** What about the TIME (Rattus norvegicus [15]) of the same compound?
**A.** 45.4 h

**Q.** What about the inhibition (Rattus norvegicus [16]) of the same compound?
**A.** Active

**Q.** What about the inhibition (Rattus norvegicus [17]) of the same compound?
**A.** Active

**Q.** And the Activity (NB-4 [18])?
**A.** 71.2%

**Q.** And the Activity (NB-4 [19])?
**A.** 11.6%

**Q.** What about the IC50 (MCF7 [20]) of the same compound?
**A.** 1.46 µM

**Q.** And the K (Rattus norvegicus [21])?
**A.** 0.46 ×10⁻³ /min

**Q.** What about the Activity (NB-4 [22]) of the same compound?
**A.** inactive

**Q.** What about the Activity (NB-4 [23]) of the same compound?
**A.** 1.4%

**Q.** And the Activity (NB-4 [24])?
**A.** Active

**Q.** And the Activity (NB-4 [25])?
**A.** 1%

**Q.** What about the IC50 (NB-4 [26]) of the same compound?
**A.** 0.51 µM

**Q.** And the Activity (Rattus norvegicus [27])?
**A.** 152 W

**Q.** And the K (Rattus norvegicus [28])?
**A.** -9.13 ×10⁻³ /min

**Q.** What about the Activity (NB-4 [29]) of the same compound?
**A.** Active

**Q.** And the Activity (NB-4 [30])?
**A.** inactive

**Q.** And the IC50 (HEK293 [31])?
**A.** 2.08 µM

**Q.** And the Activity (Rattus norvegicus [32])?
**A.** inactive

**Q.** And the Activity (Rattus norvegicus [33])?
**A.** inactive

**Q.** What about the Activity (NB-4 [34]) of the same compound?
**A.** 69.3%

**Q.** And the inhibition (Rattus norvegicus [35])?
**A.** Active

**Q.** What about the Activity (NB-4 [36]) of the same compound?
**A.** inactive

**Q.** What about the Activity (Rattus norvegicus [37]) of the same compound?
**A.** Active

**Q.** What about the Activity (NB-4 [38]) of the same compound?
**A.** 40.9%

**Q.** What about the Activity (NB-4 [39]) of the same compound?
**A.** 16.2%

**Q.** What about the IC50 (HeLa) of the same compound?
**A.** 9.05 µM
